Results taken from the METLIN SMRT retention time set (Domingo-Almenara et al. 2019).

Assay: gradient 5% acetonitrile 3 min, to 50% in 2 min, to 85% in 15 min, held 3 min, 100 µL/min
Details: column: Zorbax Extend-C18 2.1 x 50 mm; eluents: water / acetonitrile, 0.1% formic acid
In short: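 Over 3 months, pure standards in mixtures of ~100 molecules were run by HPLC coupled to a quadrupole time-of-flight mass spectrometer in positive and negative ionization mode. The column was a Zorbax Extend-C18 (2.1 × 50 mm, 1.8 μm) at 100 μL/min, eluted with water and acetonitrile each holding 0.1% formic acid, with 40 μL dead and 900 μL dwell volumes. Retention time was determined from adduct peaks chosen by software and checked manually.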

| RP-LC retention time [s] | Structure (SMILES) |
| --- | --- |
| 739 | CCc1ccc(NC(=O)N(C)CC2CCOC2)cc1 (stereo not given) |
| 747 | O=C(Cc1csc(NC(=O)c2ccsc2)n1)NCCOc1ccc(F)cc1 |
| 1100 | COc1ccc(S(=O)(=O)N2CCC(c3noc(-c4cccc(F)c4)n3)CC2)cc1 |
| 622 | CC1(C)CC(=O)c2cn(-c3ccccc3)c(=O)c(C(=O)N3CCC(N4CCCCC4)CC3)c2C1 |
| 568 | O=C(Cc1csc(SCc2ccncc2)n1)NCc1ccc2c(c1)OCO2 |
| 753 | CCc1noc2nc(C)n(CC(=O)NCc3ccccc3)c(=O)c12 |
| 562 | COc1cccc(-c2cc3n(n2)C(NC2CC2)CNC3=O)c1 (stereo not given) |
| 797 | COc1ccc(S(=O)(=O)Nc2cc(-c3cn4ccccc4n3)ccc2C)cc1 |
| 753 | COc1ccc2c(c1)CCCN2C(N)=Nc1ccc(Cl)cc1 |
| 1010 | COC(=O)c1ccc(NC(=O)Cn2cccc(-c3nc(-c4ccc(OC)c(OC)c4)no3)c2=O)cc1 |
| 777 | COc1cc(=O)n2c(c1C(=O)Nc1ccc(Br)cc1F)CCCC2 |
| 698 | Cc1cccc(Cn2c(=O)n(CCNC(=O)C3CCOC3)c3ncccc32)c1 (stereo not given) |
| 750 | CCc1ccc(Nc2nc(C(=O)NCCCOC)nc3ccccc23)cc1 |
| 557 | CN(C)c1ccc(CNC(=O)C2CCN(c3cnc(N4CCCC4)nc3)CC2)cc1 |
| 971 | O=C(CCC1CCCC1)NCCC1CCN(C(=O)Nc2cc(F)cc(F)c2)CC1 |
| 580 | CSc1ccccc1CN1CCC(CNC(=O)Nc2c(F)cccc2F)CC1 |
| 633 | O=C1CCc2cc(NC(=O)c3n[nH]c4ccccc34)ccc2N1 |
| 855 | Cc1ccc(Cn2c(=O)n(CCNC(=O)CC(C)(C)C)c3ncccc32)cc1 |
| 1160 | Cc1nn(Cc2cccc(C(=O)Nc3nc(-c4ccccc4)cs3)c2)c(C)c1Cl |
| 643 | COCC(=O)NC1CCC12CCN(C(=O)c1ccoc1)CC2 (stereo not given) |
| 1090 | Cc1ccc(N2CC(c3noc(-c4cc(Cl)ccc4F)n3)CC2=O)cc1 (stereo not given) |
| 791 | CCOc1ccc(C(=O)NCc2ccc3c(c2)Sc2ncccc2C(=O)N3CC)cc1 |
| 927 | CCOc1ncccc1C(=O)OCc1cc(-c2ccco2)on1 |

| RP-LC retention time [s] | Structure (SMILES) |
| --- | --- |
| 631 | COc1cc(-n2c(C)nc3cc(C(=O)NCC4CCCO4)ccc32)cc(OC)c1OC (stereo not given) |
| 666 | COCCNC(=O)CSc1nccc2c1ccn2Cc1ccccc1 |
| 677 | O=C(Nc1nnc(-c2cccs2)o1)c1ccc([N+](=O)[O-])o1 |
| 847 | CCOC(=O)CCCn1c(=O)c2cccn2c2ccc(F)cc21 |
| 802 | Cc1cc(C(=O)Nc2ccc(N3CCOCC3)cc2)nc2cc(-c3ccccn3)nn12 |
| 725 | Cc1ccc(N(C)C(=O)CN(C)S(=O)(=O)c2ccc3c(c2)CCCC(=O)N3)cc1 |
| 568 | CCn1c(=O)c(NCc2cc(F)ccc2F)nc2ccncc21 |
| 556 | Cc1nc(-c2cnccn2)nc2c1CCC(=O)N2Cc1cccnc1 |
| 930 | CC1(C)C(=O)N(CC(=O)N2CCc3ccccc3C2)c2ccccc21 |
| 1320 | O=S(=O)(c1cccc(-c2nc(-c3ccccc3)no2)c1)N1CCc2ccccc21 |
| 1170 | COC1CN(c2cccc(F)c2)C12CCN(S(=O)(=O)Cc1ccccc1F)CC2 (stereo not given) |
| 850 | Cc1c(Cl)cccc1N1C(=O)CN(S(C)(=O)=O)CC1(C)C(=O)NCc1ccccc1 (stereo not given) |
| 991 | COc1ccc(-c2nnc(-c3cccc(S(=O)(=O)N4CCCCC4)c3)o2)cc1OC |
| 1050 | Cc1nc2cc(-c3noc(-c4ccc5c(c4)OCO5)n3)ccc2o1 |
| 880 | O=C(Cn1ccc2ccn(Cc3ccccc3F)c2c1=O)NCc1ccc(F)cc1F |
| 612 | O=C(Cn1c(=O)c2cccn2c2ccccc21)NCCCN1CCCCCC1 |
| 1100 | Cc1cc(C)cc(NC(=O)Cn2cnc3c(sc4nc(-c5ccccc5)ccc43)c2=O)c1 |
| 784 | Cc1ccc(CNC(=O)c2sc(-c3cn(C)c4ncccc34)nc2C)cc1 |
| 602 | CCN1CCN(CCCNC(=O)c2c(N3CCCC3=O)c3cc(F)ccc3n2CC)CC1 |
| 579 | CCOC(=O)c1[nH]c(C)c(C(=O)N2CCC(CC(=O)N3CCN(CC)CC3)CC2)c1C |
| 1130 | O=C(Cc1ccc(Cl)cc1)N1CCc2nc(-c3ccc(Cl)cc3)ncc2C1 |
| 872 | COc1cccc(CCN2CC(=O)N(c3ccc(C)c(C)c3)[C@@H]3CS(=O)(=O)C[C@@H]32)c1 |
| 734 | CCN1C(=O)c2cc(C(=O)NCc3ccc(F)cc3)nn2CC1(C)C(=O)NC1CCCC1 (stereo not given) |

| RP-LC retention time [s] | Structure (SMILES) |
| --- | --- |
| 614 | CCN1CCN(CCNC(=O)c2c(N3CCCC3=O)c3cc(F)ccc3n2CC)CC1 |
| 621 | Cc1ncoc1C(=O)N1CCCCCNC(=O)[C@@H]2CCC[C@@H]21 |
| 664 | CCOC(=O)C1CCN(Cc2nc(-c3ccc(N4CCCCC4)nc3)no2)CC1 |
| 663 | CCOC(=O)C1=C(CN2CCN(C(C)CC)CC2)NC(=O)NC1c1ccc(Cl)cc1 (stereo not given) |
| 646 | Cc1nnc(NC(=O)c2ccc3c(c2)OCO3)s1 |
| 1100 | CC(C)c1ccc(S(=O)(=O)N2CCc3c(c(-c4nnc(-c5ccc(F)cc5)o4)nn3C)C2)cc1 |
| 593 | COc1cc(Cl)ccc1C(=O)N1CCc2nc[nH]c2C1 |
| 663 | O=C(NCc1ccc(F)cc1)Nc1c(-c2ccc(F)cc2)nc2ccccn12 |
| 885 | Cc1noc(-c2ccnc(-n3cnc(C(=O)NC(C)c4ccc(F)cc4)c3)c2)n1 (stereo not given) |
| 808 | CCOC(=O)c1c(C)[nH]c(C(=O)N2CCCC(C(=O)NCCc3c[nH]c4ccccc34)C2)c1C (stereo not given) |
| 856 | CCOC(=O)c1ccc(NC(=O)N2CCCC2c2cc(CC)no2)cc1 (stereo not given) |
| 739 | O=C(C1CC1)N1CCCn2nc(-c3ccccc3)cc2C1 |
| 932 | Cn1c(=O)oc2cc(-c3noc(-c4cccc5[nH]ccc45)n3)ccc21 |
| 651 | COc1ccc(Cl)c2c(=O)c3c([nH]c12)CCN(CC(=O)Nc1cccc(Cl)c1C)C3 |
| 1200 | Cc1ccc(S(=O)(=O)c2cnc(N3CCN(c4ccccc4F)CC3)nc2N)cc1C |
| 607 | O=C(NCCc1cccs1)C1CCN(c2cc(N3CCOCC3)ncn2)CC1 |
| 779 | COc1ncc(C(=O)NCc2cccc(Br)c2)cn1 |
| 880 | COc1ccc(C2(C(=O)N3CCC(Oc4ccccc4-c4nc(C)no4)C3)CC2)cc1 (stereo not given) |
| 645 | O=C(NC1CCCCC1)N1CCN(c2ccc3nnc(C4CC4)n3n2)CC1 |
| 634 | O=C(C1CC(=O)N(c2ccc3c(c2)CCN3C(=O)C2CC2)C1)N1CCOCC1 (stereo not given) |
| 958 | O=C1/C(=C\c2cccs2)Oc2ccccc21 |
| 574 | COc1cccc(C(=O)NCCCc2ccc(N(C)C)cc2)c1OC |
| 757 | Cc1ccc(CNC(=O)N2CCC3(CC2)NC(=O)c2ccccc2O3)cc1 |

| RP-LC retention time [s] | Structure (SMILES) |
| --- | --- |
| 663 | CC(=O)OCCN1c2ccccc2Sc2cnccc21 |
| 769 | CC(NC(=O)c1cc(=O)[nH]c2ccc(Br)cc12)c1ccccc1 (stereo not given) |
| 594 | CC(C)NC(=O)c1cc(N2CCCC2)nc2ccccc12 |
| 1340 | COc1cccc(C2Cn3nnc(-c4nc(-c5ccc(OCc6ccccc6)cc5)no4)c3CO2)c1 (stereo not given) |
| 799 | Cc1cc2c(OCC(CNC(C)(C)C)OC(=O)c3ccccc3)cccc2[nH]1 (stereo not given) |
| 1050 | O=C(Nc1cnc(-c2ccccc2)nc1)c1cccc(Cl)c1 |
| 646 | C=CCNC(=O)c1cc2n(n1)CCCC2 |
| 682 | CN(C)CC[C@@H](c1ccc(Br)cc1)c1ccccn1 |
| 818 | CC(NC(=O)c1ccc(C#N)cc1)C(=O)N1CCCc2ccccc21 (stereo not given) |
| 670 | COCCN1CCn2cc(S(=O)(=O)Nc3cccc(OC)c3)cc2C1=O |
| 1130 | Cc1cc(C)cc(C(=O)N2c3ccccc3CC2c2nc(C3CC3)no2)c1 (stereo not given) |
| 1030 | Cc1c(-c2ccnc(N3CCOCC3)n2)cnc2nc(-c3ccc(Cl)cc3)nn12 |
| 614 | COCCNC(=O)CCc1cc2ccc(C)cc2[nH]c1=O |
| 758 | CCOc1ccc(-c2nc3ncccn3c2NCc2ccccc2)cc1 |
| 819 | CCCNC(=O)CCc1nc2ccccc2n(CC(=O)Nc2cccc(SC)c2)c1=O |
| 612 | CCOc1ccccc1NC(=O)CN1CCN(c2nccn2-c2ccc(C)cc2)CC1 |
| 948 | CCOC(=O)c1noc2nc(C)nc(NCCCN3CCN(c4cc(Cl)ccc4C)CC3)c12 |
| 737 | COc1cc([C@@H]2c3cc4c(cc3[C@H](O)[C@@H](CO)[C@@H]2C(=O)NCc2cc(F)cc(F)c2)OCO4)cc(OC)c1OC |
| 1070 | CCOc1ccc(NC(=O)Cn2c(C)nc3c(sc4nc(-c5ccccc5)ccc43)c2=O)cc1 |
| 1040 | O=C(Cn1nc(N2CCCCCC2)c2ccccc2c1=O)NCc1ccc(F)cc1 |

| Structure (SMILES) | RP-LC retention time [s] |
| --- | --- |
| COc1ccc2c(c1)C1(CCN(C(=O)c3ccccc3F)C1)C(=O)N2 (stereo not given) | 703 |
